According to PubChem BioAssay AID1552 (Sanford-Burnham Center for Chemical Genomics, 2009):
Active and inactive are the calls of the source. No rule for the calls is given here.

target: Ubiquitin-conjugating enzyme E2 N (Homo sapiens) (UniProt P61088); experiment: NMR detection of UBE2N ligand binding – biophysical, purified protein (AID 1552); settings: NMR binding to purified UBE2N
Sequence (P61088 whole entry, looked up): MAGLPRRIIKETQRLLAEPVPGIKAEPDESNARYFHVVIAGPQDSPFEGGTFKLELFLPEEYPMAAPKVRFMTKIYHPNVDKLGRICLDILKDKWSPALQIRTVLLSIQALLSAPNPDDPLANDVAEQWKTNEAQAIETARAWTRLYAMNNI

Structure (SMILES)	Kd
COc1c(O)cccc1O	> 4 mM (inactive)
O=C(O)c1ccc(CN2CCOCC2)cc1	> 4 mM (inactive)
COc1cccc(NC(=O)c2ocnc2C)c1	> 4 mM (inactive)
O=C(NC(O)C(=O)c1ccccc1)c1ccco1 (stereo unspecified)	> 4 mM (inactive)
CC(CCC(=O)O)[C@H]1CCC2C3CC[C@@H]4CCCC[C@]4(C)C3CC[C@@]21C (stereo partly specified)	> 4 mM (inactive)
O=c1cc(-c2ccc(O)cc2)oc2cc(O)cc(O)c12	> 4 mM (inactive)
CN(C)C(=O)Nc1ccc2c(c1)nnn2C	> 4 mM (inactive)
CCc1noc(C)c1C(=O)N1CCCC1	> 4 mM (inactive)
O=C(/C=C/c1ccccc1)c1ccc(O[C@@H]2O[C@H](CO)[C@@H](O)[C@H](O)[C@H]2O)cc1O	> 4 mM (inactive)
COc1ccc(Cc2nnc3c4cnn(C)c4ncn23)cc1	> 4 mM (inactive)
Oc1cc(O)cc(/C=C/c2ccccc2)c1	> 4 mM (inactive)
Nc1[nH]c(=S)ncc1S(=O)(=O)c1ccccc1	> 4 mM (inactive)
C[n+]1cc2c3c(ccc2c2ccc4cc5c(cc4c21)OCO5)OCO3	> 4 mM (inactive)
Cc1cc(NC(=O)c2c(F)c(F)c(F)c(F)c2F)no1	> 4 mM (inactive)
CSc1ccccc1NC(=O)c1ccc(C)o1	> 4 mM (inactive)
c1ccc(-c2nnc(CNCc3ccco3)o2)cc1	> 4 mM (inactive)
O=C(c1ccc(F)cc1)C1CCNCC1	> 4 mM (inactive)
CC1(C)NCCN2C(=O)CSC21 (stereo unspecified)	> 4 mM (inactive)
COCC(=O)Nc1ccc(C)c(Cl)c1	> 4 mM (inactive)
CCC1(CC)C(=O)N=C(N)NC1=O	> 4 mM (inactive)
O=[N+]([O-])c1c[n+]([O-])n(-c2ccccc2)n1	> 4 mM (inactive)
O=C(O)Cc1c[nH]c2ccccc12	> 4 mM (inactive)
CNC(=O)C(=O)Nc1ccc(F)cc1	> 4 mM (inactive)
O=CN1CCN(C2CC(=O)N(c3ccccc3)C2=O)CC1 (stereo unspecified)	> 4 mM (inactive)

Structure (SMILES)	Kd
O=C(NN1C(=O)c2ccccc2C1=O)c1cccs1	> 4 mM (inactive)
CC1CC2(NC(=O)NC2=O)C(C)CN1C (stereo unspecified)	> 4 mM (inactive)
C=C(C)[C@@H]1[C@H]2OC(=O)[C@@H]1[C@]1(O)C[C@H]3O[C@]34C(=O)O[C@H]2[C@]14C	> 4 mM (inactive)
O=C(Nc1ccc(N2CCOCC2)cc1)c1cnsn1	> 4 mM (inactive)
c1ccc2nc3c(nc2c1)CCc1nonc1-3	> 4 mM (inactive)
NCc1ccc(-n2cccc2)cc1	> 4 mM (inactive)
ON=c1ccc2nc3ccccc3nc2cc1	> 4 mM (inactive)
Cc1nn2c(=O)c(NC(=O)c3ccccc3)cnc2s1	> 4 mM (inactive)
O=C1c2ccccc2C(=O)N1CCc1ccccn1	> 4 mM (inactive)
COc1ccc(-c2cc(=O)c3c(OC)c(OC)c(OC)c(OC)c3o2)cc1OC	> 4 mM (inactive)
CC(=O)O[C@@H]1CC2C(C)(C)[C@H](O)C=C[C@]2(C)C2CC[C@@]3(C)[C@H](c4ccoc4)OC(=O)C4OC43[C@@]21C (stereo partly specified)	> 4 mM (inactive)
O=C(Nc1cnccn1)c1cccs1	> 4 mM (inactive)
O=C(O)Cn1nnnc1-c1ccc(F)cc1	> 4 mM (inactive)
COc1ccc2cc3[n+](cc2c1OC)CCc1cc2c(cc1-3)OCO2	> 4 mM (inactive)
O=C(Nc1ccncc1)c1cncc(Br)c1	> 4 mM (inactive)
O=C(O)C1CC2CC1CCC2O (stereo unspecified)	> 4 mM (inactive)
COc1ccc(C(N)=O)cc1N	> 4 mM (inactive)
CC(=O)N1C(=S)NC(=O)/C1=C\c1cccnc1	> 4 mM (inactive)
Cc1cc(N2C(=O)CCC2=O)n(-c2ccccc2)n1	> 4 mM (inactive)
Cc1nc(NC2=NCCC(=O)N2)nc2ccccc12	> 4 mM (inactive)
CCOc1cc(C)c(Cl)cc1S(=O)(=O)N(C)C	> 4 mM (inactive)
O=C(O)C1Cc2ccccc2O1 (stereo unspecified)	> 4 mM (inactive)
CC1=C2[C@H]3OC(=O)[C@@H](C)[C@@H]3CC[C@@]2(C)C=CC1=O	> 4 mM (inactive)
CNCc1ccccc1	> 4 mM (inactive)

Structure (SMILES)	Kd
CC1=NN(c2ccc(C)cc2)C(=O)C1	> 4 mM (inactive)
CC(=O)Oc1c(-c2ccccc2)oc2c(CC=C(C)C)c3c(c(OC(C)=O)c2c1=O)C=CC(C)(C)O3	> 4 mM (inactive)
Cc1nc(-c2ccccc2)ncc1C(=O)O	> 4 mM (inactive)
O=C(O)C1CSC(c2ccccc2)N1 (stereo unspecified)	> 4 mM (inactive)
COC(=O)[C@@]1(C)CCC[C@]2(C)c3ccc(O)c(C(C)C)c3CCC12 (stereo partly specified)	> 4 mM (inactive)
O=C(O)C1=Cc2ccccc2OC1	> 4 mM (inactive)
CC(C)C(C)/C=C/C(C)[C@H]1CCC2C3=CCC4CC(=O)CC[C@]4(C)C3CC[C@@]21C (stereo partly specified)	> 4 mM (inactive)
O=C(CSc1ccnc(=O)[nH]1)NCc1ccco1	> 4 mM (inactive)
O=C(NCc1cccc(Cl)c1)c1cccnc1	> 4 mM (inactive)
Cc1cc(C(=O)NCc2ccco2)cs1	> 4 mM (inactive)
COc1ccc(S(N)(=O)=O)cc1	> 4 mM (inactive)
Cc1nnc(NCCCO)[nH]c1=O	> 4 mM (inactive)
Nc1cc(=O)[nH]c(=S)n1-c1cccc(C(F)(F)F)c1	> 4 mM (inactive)
Cc1ncc(C(=O)O)c(-c2ccccc2)n1	> 4 mM (inactive)
C[C@H]1[C@H]2CCC3C4CC=C5C[C@@H](N(C)C)CC[C@]5(C)C4CC[C@@]32CN1C (stereo partly specified)	> 4 mM (inactive)
O=C(O)c1cccc2c1OCCCO2	> 4 mM (inactive)
C=C1C([C@]2(C)C(CC(=O)OC)[C@@](C)(COC(C)=O)OC(=O)C[C@@H]2OC(C)=O)[C@@H](OC=O)[C@H](OC(=O)C(O)C(C)CC)[C@@]2(C)[C@H](c3ccoc3)CC(=O)C12O (stereo partly specified)	> 4 mM (inactive)
CC1(C)C2CC(=O)[C@]3(C)C(CC[C@@]4(C)[C@H](c5ccoc5)OC(=O)[C@H]5O[C@]543)[C@@]2(C)C=C[C@@H]1O (stereo partly specified)	> 4 mM (inactive)
Cc1nn2c(nc1=O)SCC(c1ccccc1)=N2	> 4 mM (inactive)
O=C1NC(=S)NC(=O)C1=Cc1cccs1	> 4 mM (inactive)
O=C(Nc1ccon1)c1cc2c(s1)CCCC2	> 4 mM (inactive)
O=C(Nc1cccnc1)c1c(F)c(F)c(F)c(F)c1F	> 4 mM (inactive)
NC(=O)CN1C(=O)c2cccc3cccc1c23	> 4 mM (inactive)
CCCCCCCCCCCC1=C(O)C(=O)C=C(O)C1=O	> 4 mM (inactive)

Structure (SMILES)	Kd
Cc1noc(C)c1C(=O)N1CCc2ccccc21	> 4 mM (inactive)
O=C(Nn1cnnc1)c1csc2c1CCCC2	> 4 mM (inactive)
Cc1ccc(SCc2nc(-c3ccncc3)no2)cc1	> 4 mM (inactive)
NCc1ccc(-c2cccs2)s1	> 4 mM (inactive)
CCOC(=O)c1ccc2c(c1)nnn2C	> 4 mM (inactive)
Cc1cc(C)nc(/N=C(/N)N2CCN(C)CC2)n1	> 4 mM (inactive)
OC1CCN(C(=S)NC2CC2)CC1	> 4 mM (inactive)
COC(=O)NNc1ncnc(N)c1[N+](=O)[O-]	> 4 mM (inactive)
Cc1n[nH]c(C)c1-c1ccccc1C(=O)O	> 4 mM (inactive)
Cc1ccc(C(=O)N2CCC(C(N)=O)CC2)cc1C	> 4 mM (inactive)
COc1ccc(C2(CN)CCOCC2)cc1OC	> 4 mM (inactive)
O=C(Nc1ccc2ccccc2c1)c1cnccn1	> 4 mM (inactive)
Cc1ccc(=O)[nH]c1	> 4 mM (inactive)
COc1ccc2c(c1)OCc1c-2oc2cc(OC)ccc12	> 4 mM (inactive)
COCC(=O)Nc1cc2c3c(c1)CCN3C(=O)CC2	> 4 mM (inactive)
Cc1c(C(=O)N2CCOCC2)oc2c1C(=O)CC(C)(C)C2	> 4 mM (inactive)
Cc1ccccc1NC(=S)NCCO	> 4 mM (inactive)
CC1(C)C(=O)C=C[C@@]2(C)C1CC(=O)[C@]1(C)C2CC[C@@]2(C)[C@H](c3ccoc3)OC(=O)[C@H]3O[C@]321 (stereo partly specified)	> 4 mM (inactive)
CC(C)NS(=O)(=O)c1ccc(N)cc1	> 4 mM (inactive)
Cc1cc(O)c(NC(=O)c2ccco2)cc1C	> 4 mM (inactive)
Cc1nn(CC(=O)Nc2ccccn2)c(=O)c2ccccc12	> 4 mM (inactive)
CCN=Cc1c(O)n(-c2ccccc2C)c(=O)[nH]c1=O	> 4 mM (inactive)
CSc1cccc(NC(=O)c2c(Cl)cnn2C)c1	> 4 mM (inactive)
O=C1NC(=O)C(C2SC(=O)NC2=O)S1 (stereo unspecified)	> 4 mM (inactive)

Structure (SMILES)	Kd
Nc1ccccc1C(=O)N1CCNC(=O)C1	> 4 mM (inactive)
Cc1cc(C)n2c(SCc3cccs3)nnc2n1	> 4 mM (inactive)
Cc1cc(C)n2nc(C(=O)NCc3ccco3)nc2n1	> 4 mM (inactive)
Cc1cc(C)cc(C(=O)n2cnnc2N)c1	> 4 mM (inactive)
O=C(NS(=O)(=O)c1ccccc1)c1ccccc1F	> 4 mM (inactive)
Fc1cc2nccnc2cc1N1CCSCC1	> 4 mM (inactive)
Cc1c(C(=O)Nc2ccncc2)oc2c1C(=O)CC(C)(C)C2	> 4 mM (inactive)
CCOC12NC(=O)CC(=O)N1C(c1ccccc1)=CS2 (stereo unspecified)	> 4 mM (inactive)
C=C1CCC(C2CC(=O)OC2=O)C(=O)CCC2C1CC2(C)C (stereo unspecified)	> 4 mM (inactive)
O=C1CNC(=O)N1Cc1ccc(F)cc1	> 4 mM (inactive)
Cc1ccccc1-n1c(-c2ccncc2)n[nH]c1=S	> 4 mM (inactive)
Cc1ccccc1CSc1nnc(C)n1N	> 4 mM (inactive)
CC(=O)O[C@H]1C[C@@H](OC(C)=O)C(C)(C)C2C[C@@H](OC(C)=O)[C@]3(C)C(CC[C@@]4(C)[C@H](c5ccoc5)OC(=O)[C@H]5O[C@]543)[C@]21C (stereo partly specified)	> 4 mM (inactive)
OC/C=C/c1ccc(O)c(O)c1	> 4 mM (inactive)
Cc1c(CO)cnn1-c1ccccc1	> 4 mM (inactive)
NCc1nc2ccccc2s1	> 4 mM (inactive)
Cc1cccc(NS(=O)(=O)c2cccs2)n1	> 4 mM (inactive)
COc1cc2nc(N3CCNCC3)nc(N)c2cc1OC	> 4 mM (inactive)
CC(C)=CC(=O)Nc1ccccc1C(N)=O	> 4 mM (inactive)
NC(=O)c1ccsc1N	> 4 mM (inactive)
